Experiments:
[1] = target: T1, PAR-4 (Homo sapiens, UniProt Q96RI0); assay: PAC-1 binding assay, washed platelets stimulated with PAR-4-AP (flow cytometry); format: cell-based; details: PAR-4-AP stimulation; for remaining activity at 10 µM: 10 μM antagonist, 100% = DMSO control stimulated, read-out: PAR-4 AP % Max PAC-1 binding (10 μM); for IC50: read-out: PAR-4 AP % Max PAC-1 binding (IC50 [M])
T1 construct: endogenous in cells; host or cells: washed platelets
T1 sequence (Q96RI0 18-385): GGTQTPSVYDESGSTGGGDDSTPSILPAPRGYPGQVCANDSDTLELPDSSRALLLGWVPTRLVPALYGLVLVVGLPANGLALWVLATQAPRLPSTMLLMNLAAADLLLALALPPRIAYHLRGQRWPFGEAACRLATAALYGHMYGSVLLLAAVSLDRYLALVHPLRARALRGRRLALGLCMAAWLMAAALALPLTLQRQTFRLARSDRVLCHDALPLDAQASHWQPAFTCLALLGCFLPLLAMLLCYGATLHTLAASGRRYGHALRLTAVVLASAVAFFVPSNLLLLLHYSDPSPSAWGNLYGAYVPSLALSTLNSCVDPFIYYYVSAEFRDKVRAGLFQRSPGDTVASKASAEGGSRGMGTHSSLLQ
Procedure: (§1) PAC-1 Binding assay: 60 μL of washed platelets (Tyrodes buffer containing 0.1% BSA) at a concentration of 0.15×10^8 platelets/mL were added to 5 mL round bottom polystyrene tubes (BD, Franklin Lakes, N.J.). FITC conjugated PAC-1 (BD Biosciences, San Jose, Calif.) antibody was diluted (to the manufacturers recommended concentration) in Tyrode's buffer containing 0.1% BSA. 40 μL of diluted antibody was added to the platelets and allowed to incubate for 5 minutes. Platelets were pre-treated with indicated concentrations of antagonist or DMSO control for 20 minutes (the final DMSO concentration was 0.5%) followed by addition of PAR-1-AP (GL Biochem, Shanghai, China), PAR-4-AP, or gamma-thrombin for 10 minutes. Platelet activity was quenched by the addition ice cold 1.5% paraformaldehyde followed by dilution in 1× phosphate buffered saline. Platelets were stored up to 18 hours at 4° C. before flow cytometric analysis. Analysis was carried out on a BD FACS Canto II or BD LSRII (Franklin Lakes, N.J.). Fluorescent intensity was determined for at least 20,000 events within the platelet gate (forward scatter versus side scatter). Data was collected and analyzed via FACS DiVa or FlowJo software. Flow cytometric data analysis was conducted by the following method. The DMSO-vehicle treated control was subtracted from each data point. 100% response for PAR-4-AP was determined for each individual as the DMSO treated control stimulated with PAR-4-AP, PAR-1-AP, or gamma-thrombin. Data was plotted in GraphPad PRISM v.5.0. For compounds with a notable reduction in PAC-1 binding response, dose response curves and IC50 values were generated using the inhibitory sigmoidal dose response ‘variable slope’ parameter. Results were plotted as mean±SEM.

[2] = target: T1, PAR-4; assay: PAC-1 binding assay, washed platelets stimulated with 100 nM gamma-thrombin (flow cytometry); format: cell-based; details: 100 nM γ-thrombin stimulation
Excerpt: Gamma-thrombin is a proteolytic product of alpha-thrombin cleavage by a serine protease. Cleavage results in the disruption of exosite I which interacts directly with the hirudin-like domain of its primary substrates fibrinogen and protease-activated receptor 1 (PAR1). […] See Soslau, G., Class, R., Morgan, D. A., Foster, C., Lord, S. T., Marchese, P., and Ruggeri, Z. M. (2001) Unique pathway of thrombin-induced platelet aggregation mediated by glycoprotein Ib, The Journal of biological chemistry 276, 21173-21183. Gamma-thrombin (Enzyme Research Laboratories, South Bend, Indiana) is produced by trypsin-sepharose cleavage of alpha-thrombin. To neutralize alpha-thrombin contamination, stock solutions of gamma-thrombin are preincubated with 1 unit/mL hirudin prior 100 fold dilution into the sample for platelet stimulation. […] Single point screens and concentration response curves are conducted with 316 nanomolar or 100 nanomolar gamma-thrombin using PAC1 and CD62p binding.
as §1

SMILES	remaining activity at 10 µM [1] [%]	IC50 [1] [M]	IC50 [2] [nM]
COc1nn2cc(-c3ccc(C(F)(F)F)cc3)nc2s1 [Example B1]	-1.91		
COc1nn2cc(-c3ccccc3C(F)(F)F)nc2s1 [Example B2]	-0.14	1.33e-06	
COc1nn2cc(-c3c(F)cccc3F)nc2s1 [Example B4]	1.29		
COc1nn2cc(-c3ccc(F)cc3F)nc2s1 [Example B5]	0.21	1.75e-07	
COc1nn2cc(-c3ccc(Br)cc3F)nc2s1 [Example B6]	2.82	1.96e-07	
COc1nn2cc(-c3ccc(Oc4ccccc4)cc3)nc2s1 [Example B9]	-0.09	1.43e-07	
COc1ccc(-c2cn3nc(OC)sc3n2)cc1 [Example B10]	-1.59	6.25e-07	
COc1nn2cc(-c3ccc(S(C)(=O)=O)cc3)nc2s1 [Example B11]	4.19	1.09e-06	
COc1nn2cc(-c3ccc(O)cc3O)nc2s1 [Example B13]	98.4		
COc1nn2cc(-c3ccccc3O)nc2s1 [Example B14]	92.7		
COc1nn2cc(-c3ccccc3OC)nc2s1 [Example B15]	8.45	3.95e-06	
COc1nn2cc(-c3ccc(O)cc3)nc2s1 [Example B16]	91.2		
COc1nn2cc(-c3ccc(C#N)cc3)nc2s1 [Example B17]	0.93	8.95e-07	
COc1nn2cc(-c3ccccn3)nc2s1 [Example B18]	18.6	2.22e-05	
COc1nn2cc(-c3cccnc3)nc2s1 [Example B22]	81.3		
COc1nn2cc(-c3ccc(-c4cccs4)cc3)nc2s1 [Example B24]	3.35	1.63e-07	
COc1nn2cc(-c3cc(C(F)(F)F)cc(C(F)(F)F)c3)nc2s1 [Example B25]	-0.34	5.23e-08	> 1000
COc1nn2cc(-c3ccc(OC(F)(F)F)cc3)nc2s1 [Example B27]	-0.2		

SMILES	remaining activity at 10 µM [1] [%]	IC50 [1] [M]	IC50 [2] [nM]
COc1nn2cc(-c3ccc(OC(F)F)cc3)nc2s1 [Example B28]	-0.21	8.34e-08	> 1000
COc1nn2cc(-c3ccc(F)c(C(F)(F)F)c3)nc2s1 [Example B29]	-0.45		
COc1nn2cc(-c3ccccc3F)nc2s1 [Example B30]	-0.14	5.26e-07	
COc1nn2cc(-c3ccc([N+](=O)[O-])cc3)nc2s1 [Example B31]	1.6	2.07e-07	
CC(C)Oc1nn2cc(-c3c(F)cccc3F)nc2s1 [Example B33]	102		
Fc1cccc(F)c1-c1cn2nc(OC3CCCC3)sc2n1 [Example B34]	109		
CC(C)Oc1nn2cc(-c3ccc(C(F)(F)F)cc3)nc2s1 [Example B40]	81.5		
CC(C)COc1nn2cc(-c3ccc(C(F)(F)F)cc3)nc2s1 [Example B41]	102		
FC(F)(F)c1ccc(-c2cn3nc(OC4CCCC4)sc3n2)cc1 [Example B42]	114		
COc1nn2cc(-c3ccc(OCc4csc(-c5ccccc5)n4)cc3)nc2s1 [Example B43, 2-Methoxy-6-(4-((2-phenylthiazol-4-yl)methoxy)phenyl)imidazo[2,1-b][1,3,4]thiadiazole]	0.91	1.33e-06	
CC(C)COc1nn2cc(-c3c(F)cccc3F)nc2s1 [Example B44]	93.7		
COc1nn2cc(-c3ccc(N4CCOCC4)cc3)nc2s1 [Example B46]	10.4		
COc1nn2cc(-c3cccc(OCc4csc(-c5ccccc5)n4)c3)nc2s1 [Example B47]	-0.27	4.32e-08	≥ 1000
COc1nn2cc(-c3ccccc3OCc3csc(-c4ccccc4)n3)nc2s1 [Example B48]	96		
COc1nn2cc(-c3ccccc3[N+](=O)[O-])nc2s1 [Example B49]	17.1	> 1e-06	
COc1nn2cc(-c3ccc(-c4ccccc4)cc3)nc2s1 [Example B51]	72.7		
COc1nn2cc(-c3ccc(F)cc3)nc2s1 [Example B52]	0.063	4.06e-07	
COc1nn2cc(-c3ccc4sccc4c3)nc2s1 [Example B54]	20.7	7.75e-08	> 1000

More lines, now with the values ahead:

remaining activity at 10 µM [1] [%]	IC50 [1] [M]	IC50 [2] [nM]	SMILES
-0.26			COc1nn2cc(-c3cccc(C(F)(F)F)c3)nc2s1 [Example B3]
1.47	6.85e-07		COc1nn2cc(-c3cccc(F)c3)nc2s1 [Example B7]
1.48	7.08e-07		COc1nn2cc(-c3ccccc3)nc2s1 [Example B8]
1.78	5.2e-08	> 1000	COc1nn2cc(-c3ccc(C)cc3)nc2s1 [Example B12, 2-methoxy-6-(p-tolyl)imidazo[2,1-b][1,3,4]thiadiazole]
0.02			COc1nn2cc(-c3ccc(Cl)cc3)nc2s1 [Example B19]
-0.92			COc1nn2cc(-c3ccc(Cl)c(Cl)c3)nc2s1 [Example B20]
0.74	4.54e-07		COc1nn2cc(-c3ccccc3Cl)nc2s1 [Example B21]
-1.07	6.9e-08	> 1000	COc1nn2cc(-c3cccc(Cl)c3)nc2s1 [Example B23]
1.52	9.95e-08		COc1nn2cc(-c3ccc(Cl)c([N+](=O)[O-])c3)nc2s1 [Example B26]
3.47	1.17e-06		CCOc1nn2cc(-c3c(F)cccc3F)nc2s1 [Example B32]
2.31	1.24e-06		CCOc1nn2cc(-c3cccc(Cl)c3)nc2s1 [Example B35]
63.2			CC(C)Oc1nn2cc(-c3cccc(Cl)c3)nc2s1 [Example B36]
97.3			CC(C)COc1nn2cc(-c3cccc(Cl)c3)nc2s1 [Example B37]
99.5			Clc1cccc(-c2cn3nc(OC4CCCC4)sc3n2)c1 [Example B38]
2.21	6.48e-07		CCOc1nn2cc(-c3ccc(C(F)(F)F)cc3)nc2s1 [Example B39]
48.1			COc1nn2cc(-c3ccc4ncn(C)c4c3)nc2s1 [Example B45]
6.82	> 1e-06		COc1nn2cc(-c3cccc([N+](=O)[O-])c3)nc2s1 [Example B50]
-0.071	2.91e-07		COc1cccc(-c2cn3nc(OC)sc3n2)c1 [Example B53]

Reference: patent US20190119300A1, “SUBSTITUTED AND FUSED 6-MEMBERED PROTEASE ACTIVATED RECEPTOR 4 (PAR-4) ANTAGONISTS” (Vanderbilt University, priority 2016, published 2019)
